Assay results published in PMC4522657, “Identification of a DYRK1A Inhibitor that Induces Degradation of the Target Kinase using Co-chaperone CDC37 fused with Luciferase nanoKAZ” (Scientific Reports, 2015).

Legend:
EGFR(T790M) = target: T1, EGFR(T790M) (Homo sapiens, UniProt P00533, T790M); assay: Kinase panel, CaNDY 1 µM; format: biochemical; details: CaNDY 1 µM relative to DMSO
T1 construct: purchased Carna Biosciences

FGFR4 = target: T2, FGFR4 (Homo sapiens, UniProt P22455); assay: Kinase panel, CaNDY 1 µM; format: biochemical; details: CaNDY 1 µM relative to DMSO
T2 construct: purchased Carna Biosciences

FYN = target: T3, FYN (Homo sapiens, UniProt P06241); assay: Kinase panel, CaNDY 1 µM; format: biochemical; details: CaNDY 1 µM relative to DMSO
T3 construct: purchased Carna Biosciences

KIT(V560G) = target: T4, KIT(V560G) (Homo sapiens, UniProt P10721, V560G); assay: Kinase panel, CaNDY 1 µM; format: biochemical; details: CaNDY 1 µM relative to DMSO
T4 construct: purchased Carna Biosciences

LYNb = target: T5, LYNb (Homo sapiens, UniProt P07948); assay: Kinase panel, CaNDY 1 µM; format: biochemical; details: CaNDY 1 µM relative to DMSO
T5 construct: purchased Carna Biosciences

ROS = target: T6, ROS (Homo sapiens, UniProt P08922); assay: Kinase panel, CaNDY 1 µM; format: biochemical; details: CaNDY 1 µM relative to DMSO
T6 construct: purchased Carna Biosciences

TIE2 = target: T7, TIE2 (Homo sapiens, UniProt Q02763); assay: Kinase panel, CaNDY 1 µM; format: biochemical; details: CaNDY 1 µM relative to DMSO
T7 construct: purchased Carna Biosciences

CLK2 = target: T8, CLK2 (Homo sapiens, UniProt P49760); assay: Kinase panel, CaNDY 1 µM; format: biochemical
T8 construct: purchased Carna Biosciences

Erk1 = target: T9, Erk1 (Homo sapiens, UniProt P27361); assay: Kinase panel, CaNDY 1 µM; format: biochemical; details: CaNDY 1 µM relative to DMSO
T9 construct: purchased Carna Biosciences

IRAK4 = target: T10, IRAK4 (Homo sapiens, UniProt Q9NWZ3); assay: Kinase panel, CaNDY 1 µM; format: biochemical; details: CaNDY 1 µM relative to DMSO
T10 construct: purchased Carna Biosciences

MAP2K2_Cascade = target: T11, MAP2K2_Cascade (Homo sapiens, UniProt P36507); assay: Kinase panel, CaNDY 1 µM; format: biochemical; details: CaNDY 1 µM relative to DMSO
T11 construct: purchased Carna Biosciences

MAP3K1_Cascade = target: T12, MAP3K1_Cascade (Homo sapiens, UniProt Q13233); assay: Kinase panel, CaNDY 1 µM; format: biochemical; details: CaNDY 1 µM relative to DMSO
T12 construct: purchased Carna Biosciences

MAP3K2_Cascade = target: T13, MAP3K2_Cascade (Homo sapiens, UniProt Q9Y2U5); assay: Kinase panel, CaNDY 1 µM; format: biochemical; details: CaNDY 1 µM relative to DMSO
T13 construct: purchased Carna Biosciences

PAK1 = target: T14, PAK1 (Homo sapiens, UniProt Q13153); assay: Kinase panel, CaNDY 1 µM; format: biochemical; details: CaNDY 1 µM relative to DMSO
T14 construct: purchased Carna Biosciences

PAK6 = target: T15, PAK6 (Homo sapiens, UniProt Q9NQU5); assay: Kinase panel, CaNDY 1 µM; format: biochemical; details: CaNDY 1 µM relative to DMSO
T15 construct: purchased Carna Biosciences

PHKG1 = target: T16, PHKG1 (Homo sapiens, UniProt Q16816); assay: Kinase panel, CaNDY 1 µM; format: biochemical; details: CaNDY 1 µM relative to DMSO
T16 construct: purchased Carna Biosciences

PKACα = target: T17, PKACα (Homo sapiens, UniProt P17612); assay: Kinase panel, CaNDY 1 µM; format: biochemical; details: CaNDY 1 µM relative to DMSO
T17 construct: purchased Carna Biosciences

PKCα = target: T18, PKCα (Homo sapiens, UniProt P17252); assay: Kinase panel, CaNDY 1 µM; format: biochemical; details: CaNDY 1 µM relative to DMSO
T18 construct: purchased Carna Biosciences

PKCβ1 = target: T19, PKCβ1 (Homo sapiens, UniProt P05771); assay: Kinase panel, CaNDY 1 µM; format: biochemical; details: CaNDY 1 µM relative to DMSO
T19 construct: purchased Carna Biosciences

PKCγ = target: T20, PKCγ (Homo sapiens, UniProt P05129); assay: Kinase panel, CaNDY 1 µM; format: biochemical; details: CaNDY 1 µM relative to DMSO
T20 construct: purchased Carna Biosciences

PLK2 = target: T21, PLK2 (Homo sapiens, UniProt Q9NYY3); assay: Kinase panel, CaNDY 1 µM; format: biochemical; details: CaNDY 1 µM relative to DMSO
T21 construct: purchased Carna Biosciences

RAF1_Cascade = target: T22, RAF1_Cascade (Homo sapiens, UniProt P04049); assay: Kinase panel, CaNDY 1 µM; format: biochemical; details: CaNDY 1 µM relative to DMSO
T22 construct: purchased Carna Biosciences

endogenous DYRK1A = target: T23, endogenous DYRK1A (Homo sapiens, UniProt Q13627); assay: Western blot of endogenous DYRK1A protein in HEK293 cells; format: cell-based; details: CaNDY 2 μM, 4 days
T23 construct: endogenous in cells; host or cells: HEK293
Protocol: We investigated whether CaNDY destabilizes DYRK1A as ganetespib does. […] Next we examined whether CaNDY decreased endogenous DYRK1A protein. HEK293 cells were cultured for 0–4 days with CaNDY (2 μM) and then subjected to SDS-PAGE followed by Western blot analysis using antibodies against DYRK1A and GAPDH. […] The treated cells were also subjected to reverse transcription followed by quantitative PCR analysis.
(§1) Western blot analysis was performed using the antibodies described above. In brief, total cell lysates were separated by SDS-PAGE (5–20% gels; ATTO, Tokyo, Japan) under reducing conditions and then transferred to a PVDF membrane (PALL, SP, Brazil). Antibody reactions were performed with Can Get Signal® Immunoreaction Enhancer Solution (Toyobo). Peroxidase activities on the membrane were visualized with ECL Western Blotting Detection Reagents (GE Healthcare) or ImmunoStar® LD (Wako Pure Chemical Industries, Osaka, Japan), and a ChemiDoc^TM MP Imaging System (Bio-Rad, Hercules, CA, USA).

CDC37-nanoKAZ = assay: Luminescence activity of CDC37-nanoKAZ in total cell lysates; format: cell-based; details: counter-test, same concentrations as interaction assay
Protocol: The luminescence activity of the cell lysates was determined using a Centro LB 960 Microplate Luminometer (Berthold Technologies, Bad Wildbad, Germany). A reaction mixture containing bis-coelenterazine (final concentration of 0.1–1 μg/100 μL) in PBS containing 0.02% Tween20 and 20 mM EDTA was injected. The luminescence intensity was recorded at 0.1 s intervals for 10 s or 10 min. The maximum luminescence intensity (Imax), represented in relative luminescence units (rlu), was used in the study.
Targeting the DYRK1A/CDC37 complex
(a-d) Luminescence intensities of total cell lysates of cells treated with the indicated […]
Figure 4. Luminescence intensities at each concentration are shown as fold-changes relative to that at 0 nM. Points are means ± SD (n = 3).
(1 picture or pasted object on this page, not shown here)
Luminescence intensities of total cell lysates of cells treated with the indicated concentrations of CaNDY, as also used in Figure 5c. Luminescence intensities at each concentration are shown as fold-changes to that at 0 nM. Points are means ± SD (n = 3).

other 19 kinases = assay: Western blot of other kinases in HEK293 cells; format: cell-based; details: CaNDY 2 μM, 4 days
Protocol: To check selectivity of CaNDY for other kinases, we first examined protein expression of several kinases in HEK293 cells treated with CaNDY (2 μM) for 4 days. […] Third, protein expression of these kinases targeted by CaNDY (DYRK1A, DYRK1B, CLK1, and Haspin) was reassessed by Western blot analysis as performed in Fig. 7b.
as §1

T8 sequence (P49760 whole entry): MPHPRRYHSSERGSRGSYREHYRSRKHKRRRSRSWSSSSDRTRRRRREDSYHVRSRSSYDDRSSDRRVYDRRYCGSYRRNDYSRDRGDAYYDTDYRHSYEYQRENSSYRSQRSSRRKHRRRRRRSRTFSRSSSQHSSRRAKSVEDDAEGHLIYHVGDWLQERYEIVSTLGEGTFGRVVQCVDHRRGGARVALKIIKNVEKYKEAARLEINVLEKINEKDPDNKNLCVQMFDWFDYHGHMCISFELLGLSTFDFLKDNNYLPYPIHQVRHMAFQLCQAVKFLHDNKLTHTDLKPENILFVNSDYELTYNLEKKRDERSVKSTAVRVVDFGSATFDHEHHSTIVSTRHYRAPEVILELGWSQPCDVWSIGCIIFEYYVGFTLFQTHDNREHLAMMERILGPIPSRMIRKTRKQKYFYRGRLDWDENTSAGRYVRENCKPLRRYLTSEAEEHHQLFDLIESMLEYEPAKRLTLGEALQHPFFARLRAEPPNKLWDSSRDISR
T22 sequence (P04049 whole entry): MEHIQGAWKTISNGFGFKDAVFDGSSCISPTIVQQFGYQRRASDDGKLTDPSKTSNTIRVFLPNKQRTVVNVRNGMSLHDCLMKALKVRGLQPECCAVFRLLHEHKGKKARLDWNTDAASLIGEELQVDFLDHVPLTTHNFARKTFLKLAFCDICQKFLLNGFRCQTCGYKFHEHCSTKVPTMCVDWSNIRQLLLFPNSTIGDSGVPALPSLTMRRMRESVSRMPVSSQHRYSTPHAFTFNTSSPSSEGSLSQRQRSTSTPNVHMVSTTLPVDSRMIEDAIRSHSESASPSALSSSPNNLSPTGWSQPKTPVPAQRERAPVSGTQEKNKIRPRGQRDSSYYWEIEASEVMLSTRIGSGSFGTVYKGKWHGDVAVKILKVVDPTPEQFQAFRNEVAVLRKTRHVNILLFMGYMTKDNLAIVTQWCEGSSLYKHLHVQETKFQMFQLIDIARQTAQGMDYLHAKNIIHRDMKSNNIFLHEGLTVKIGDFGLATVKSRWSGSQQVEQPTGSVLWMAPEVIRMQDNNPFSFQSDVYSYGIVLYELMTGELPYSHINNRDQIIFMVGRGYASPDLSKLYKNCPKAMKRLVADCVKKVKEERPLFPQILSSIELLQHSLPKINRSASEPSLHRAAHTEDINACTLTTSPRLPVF
T9 sequence (P27361 whole entry): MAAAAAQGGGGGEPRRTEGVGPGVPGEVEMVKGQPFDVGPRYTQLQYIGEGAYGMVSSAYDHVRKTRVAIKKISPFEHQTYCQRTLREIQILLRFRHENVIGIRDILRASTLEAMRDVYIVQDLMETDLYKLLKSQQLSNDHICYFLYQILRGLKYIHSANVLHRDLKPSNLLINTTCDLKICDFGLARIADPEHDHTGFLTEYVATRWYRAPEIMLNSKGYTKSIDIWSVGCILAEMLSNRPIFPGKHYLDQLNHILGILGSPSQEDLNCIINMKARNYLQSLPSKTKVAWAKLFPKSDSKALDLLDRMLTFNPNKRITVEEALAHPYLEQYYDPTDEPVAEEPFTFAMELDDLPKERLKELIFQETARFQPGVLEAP
T10 sequence (Q9NWZ3 whole entry): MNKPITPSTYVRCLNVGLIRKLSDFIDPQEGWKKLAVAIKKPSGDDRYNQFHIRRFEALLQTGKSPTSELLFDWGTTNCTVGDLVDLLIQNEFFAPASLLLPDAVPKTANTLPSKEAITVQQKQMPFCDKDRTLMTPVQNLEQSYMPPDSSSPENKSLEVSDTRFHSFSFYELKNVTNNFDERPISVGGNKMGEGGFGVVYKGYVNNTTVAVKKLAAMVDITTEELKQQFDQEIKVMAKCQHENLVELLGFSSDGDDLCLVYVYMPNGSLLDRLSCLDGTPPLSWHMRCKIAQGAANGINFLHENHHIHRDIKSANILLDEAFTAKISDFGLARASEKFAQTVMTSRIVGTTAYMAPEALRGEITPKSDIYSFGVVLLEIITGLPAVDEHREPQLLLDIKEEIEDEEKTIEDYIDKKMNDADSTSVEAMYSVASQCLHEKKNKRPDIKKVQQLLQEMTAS
T19 sequence (P05771 whole entry): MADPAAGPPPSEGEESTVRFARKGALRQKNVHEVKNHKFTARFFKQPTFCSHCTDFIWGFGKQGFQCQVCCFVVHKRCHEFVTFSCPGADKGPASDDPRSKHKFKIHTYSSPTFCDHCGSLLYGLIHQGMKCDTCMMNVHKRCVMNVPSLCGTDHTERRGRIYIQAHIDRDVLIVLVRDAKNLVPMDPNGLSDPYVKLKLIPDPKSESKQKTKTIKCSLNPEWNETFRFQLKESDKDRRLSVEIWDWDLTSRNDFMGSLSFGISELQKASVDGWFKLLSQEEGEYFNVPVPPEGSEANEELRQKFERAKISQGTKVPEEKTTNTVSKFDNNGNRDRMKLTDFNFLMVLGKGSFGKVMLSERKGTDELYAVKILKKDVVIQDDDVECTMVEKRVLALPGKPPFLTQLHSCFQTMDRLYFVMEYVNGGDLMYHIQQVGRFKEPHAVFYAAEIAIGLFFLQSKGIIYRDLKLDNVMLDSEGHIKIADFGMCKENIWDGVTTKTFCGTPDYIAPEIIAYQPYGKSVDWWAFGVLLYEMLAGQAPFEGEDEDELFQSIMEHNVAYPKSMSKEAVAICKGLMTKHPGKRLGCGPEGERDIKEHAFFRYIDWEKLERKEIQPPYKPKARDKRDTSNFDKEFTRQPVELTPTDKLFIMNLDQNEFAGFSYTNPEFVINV
T13 sequence (Q9Y2U5 whole entry): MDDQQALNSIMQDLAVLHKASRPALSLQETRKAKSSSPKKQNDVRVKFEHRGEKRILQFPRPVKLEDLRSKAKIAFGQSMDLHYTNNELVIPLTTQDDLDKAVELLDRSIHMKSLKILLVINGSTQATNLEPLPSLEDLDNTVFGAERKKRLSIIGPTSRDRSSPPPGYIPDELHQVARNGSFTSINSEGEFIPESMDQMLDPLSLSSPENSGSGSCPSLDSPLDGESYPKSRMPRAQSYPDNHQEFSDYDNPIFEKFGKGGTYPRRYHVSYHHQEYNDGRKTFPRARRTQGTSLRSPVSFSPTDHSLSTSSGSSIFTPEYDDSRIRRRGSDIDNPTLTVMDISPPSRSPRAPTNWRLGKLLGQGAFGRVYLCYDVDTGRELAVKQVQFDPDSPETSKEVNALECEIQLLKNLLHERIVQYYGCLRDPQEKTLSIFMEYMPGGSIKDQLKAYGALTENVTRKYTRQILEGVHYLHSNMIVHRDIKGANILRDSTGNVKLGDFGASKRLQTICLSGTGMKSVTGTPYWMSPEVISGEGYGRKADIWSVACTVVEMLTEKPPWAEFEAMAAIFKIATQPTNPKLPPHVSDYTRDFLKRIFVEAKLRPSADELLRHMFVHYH
T21 sequence (Q9NYY3 whole entry): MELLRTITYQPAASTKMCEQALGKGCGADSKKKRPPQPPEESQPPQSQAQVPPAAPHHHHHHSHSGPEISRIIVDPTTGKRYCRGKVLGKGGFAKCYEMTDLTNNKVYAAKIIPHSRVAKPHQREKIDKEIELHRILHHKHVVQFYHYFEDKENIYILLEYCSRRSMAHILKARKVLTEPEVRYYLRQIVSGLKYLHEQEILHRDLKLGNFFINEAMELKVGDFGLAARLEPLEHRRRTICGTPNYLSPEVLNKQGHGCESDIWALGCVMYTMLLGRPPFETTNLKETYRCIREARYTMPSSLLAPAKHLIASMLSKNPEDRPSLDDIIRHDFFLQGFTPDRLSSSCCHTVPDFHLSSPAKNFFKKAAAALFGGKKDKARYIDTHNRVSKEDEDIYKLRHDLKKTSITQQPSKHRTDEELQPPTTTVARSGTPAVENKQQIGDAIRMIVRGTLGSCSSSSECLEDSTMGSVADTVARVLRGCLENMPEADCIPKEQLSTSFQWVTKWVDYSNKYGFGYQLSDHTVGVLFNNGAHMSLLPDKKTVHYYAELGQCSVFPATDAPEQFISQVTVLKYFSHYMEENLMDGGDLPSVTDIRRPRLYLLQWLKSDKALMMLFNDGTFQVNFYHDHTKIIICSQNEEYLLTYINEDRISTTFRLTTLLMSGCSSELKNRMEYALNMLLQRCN
T16 sequence (Q16816 whole entry): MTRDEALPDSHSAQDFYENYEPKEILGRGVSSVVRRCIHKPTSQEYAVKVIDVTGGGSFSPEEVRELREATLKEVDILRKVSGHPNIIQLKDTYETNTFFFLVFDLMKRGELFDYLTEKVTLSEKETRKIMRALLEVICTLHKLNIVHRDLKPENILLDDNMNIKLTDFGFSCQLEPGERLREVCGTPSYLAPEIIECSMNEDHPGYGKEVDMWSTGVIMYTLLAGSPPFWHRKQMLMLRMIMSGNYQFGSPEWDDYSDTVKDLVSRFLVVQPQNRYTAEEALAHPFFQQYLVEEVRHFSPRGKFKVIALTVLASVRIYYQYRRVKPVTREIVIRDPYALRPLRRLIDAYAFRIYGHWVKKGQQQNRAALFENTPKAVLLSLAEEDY

For `[H]/N=C1/NC(=O)C(=Cc2ccc3c(c2)CCO3)S1` [CaNDY, (Z)-5-[(2,3-dihydrobenzofuran-5-yl)methylene]-2-iminothiazolidin-4-one], the “%Activity” value (EGFR(T790M)) was 107.5%, the remaining activity at 1 µM (FGFR4) was 107% and the remaining activity at 1 µM (FYN) was 102%. For the same compound, the remaining activity at 1 µM (KIT(V560G)) was 101%, the remaining activity at 1 µM (LYNb) was 98% and the remaining activity at 1 µM (ROS) was 103%. For the same compound, the remaining activity at 1 µM (TIE2) was 101%, the inhibition at 1 µM (CLK2; 1 μM CaNDY, read-out: percentage inhibition) was greater than 90% and the “%Activity” value (CLK2; CaNDY 1 µM relative to DMSO) was 9.0%. For the same compound, the remaining activity at 1 µM (Erk1) was 96.2%, the “%Activity” value (IRAK4) was 100.8% and the remaining activity at 1 µM (MAP2K2_Cascade) was 94.7%. The remaining activity at 1 µM (MAP3K1_Cascade) was 99%, the remaining activity at 1 µM (MAP3K2_Cascade) was 102% and the remaining activity at 1 µM (PAK1) was 98.6%. It also gave a remaining activity at 1 µM (PAK6) of 101%, a remaining activity at 1 µM (PHKG1) of 92.1% and a remaining activity at 1 µM (PKACα) of 88.9%. For the same compound, the remaining activity at 1 µM (PKCα) was 82.4%, the remaining activity at 1 µM (PKCβ1) was 83.8% and the remaining activity at 1 µM (PKCγ) was 90.6%. For the same compound, the “%Activity” value (PLK2) was 95.9%, the remaining activity at 1 µM (RAF1_Cascade) was 82.3% and the “accumulation of endogenous DYRK1A” value (endogenous DYRK1A) was “prevented accumulation of endogenous DYRK1A”. For the same compound, the “protein expression of DYRK1A (reassessed)” value (endogenous DYRK1A; Fig. 7d) was “decreased expression”, the “inhibition of luminescence activity of CDC37-nanoKAZ” value (CDC37-nanoKAZ) was “did not inhibit” and the “protein expression of other kinases” value (other 19 kinases) was “did not decrease the other 19 kinases”.
